Counter-ions that a name gives are not always drawn. Like-named read-outs stand apart in the source and are kept apart here.
What was measured:
[1] = system: Ishikawa human endometrial tumor cells; assay: Ishikawa cell assay (PNPP readout), antagonist mode; assay type: cell-based; details: with 1 nM E2
Source text: (§1) Ishikawa human endometrial tumor cells are maintained in MEM (minimum essential medium, with Earle's salts and L-Glutamine, Gibco BRL, Gaithersburg, Md.), supplemented with 10% fetal bovine serum (FBS) (V/V), (Gibco BRL). One day prior to assay, growth media is changed to assay medium, DMEM/F-12 (3:1) (Dulbecco's Modified Eagle Medium: Nutrient Mixture F-12, 3:1 Mixture, phenol red-free, Gibco BRL) supplemented with 5% dextran coated charcoal stripped fetal bovine serum (DCC-FBS) (Hyclone, Logen, Utah), L-Glutamine (2 mM), MEM sodium pyruvate (1 mM), HEPES (N-[2-hydroxyethyl]piperazine-N′-[2-ethanesulfonic acid] 2 mM) all from Gibco BRL). After an overnight incubation, ishikawa cells are rinsed with Dulbecco's Phosphate Buffered Saline (1×) (D-PBS) without Ca^+2 and Mg^+2 (Gibco BRL), and trypsinized by a 3 minute incubation with 0.25% Trypsin/EDTA, phenol red-free (Gibco BRL). Cells are resuspended in assay medium and adjusted to 250,000 cells/ml. Approximately 25,000 cells in a 100 ul media are added to flat-bottom 96 wells microculture plates (Costar 3596) and incubated at 37° C. in a 5% CO2 humidified incubator for 24 hours. The next day, serial dilutions of compounds are prepared in assay medium (at 6 times the final concentration in the assay). The assay is run in dual mode, agonist and antagonist modes. For the agonist mode, plates receive 25 μl/well of assay medium followed by 25 μl/well of diluted compounds (at 6× the final concentrations). For the antagonist mode, plates receive 25 μl/well of 6 nM E2 (β-Estradiol, Sigma, St. Louis, Mo.) followed by 25 μl/well of diluted compounds (at 6× the final concentrations). After an additional 48-hour incubation at 37° C. in a 5% CO2 humidified incubator, media is aspirated from wells and 100 μl fresh assay medium is added to each microculture. Serial dilutions of compounds are prepared and added to the cells as described above. After an additional 72 hour incubation at 37° C. in a 5% CO2 humidified incubator, the assay is quenched by removing media and rinsing plates twice in Dulbecco's Phosphate Buffered Saline (1×) (D-PBS) (Gibco BRL). The plates are dried for 5 min and frozen at −70° C. for at least 1 hour. The plates are then removed from the freezer and allowed to thaw at room temperature. To each well, 100 μl of 1-Step™ PNPP (Pierce Chemical Company, Rockford, Ill.) is added. After a 20-minute incubation, plates are read on a spectophotometer at 405 nm. The data is fitted to a linear interpolation to derive EC50 (for agonist mode) or IC50 (for antagonist mode) values. For the agonist mode, a % efficacy for each compound is calculated versus the response to Tamoxifen. For the antagonist mode, a % efficacy for each compound is calculated versus E2 (1 nM) alone.

[2] = system: Ishikawa human endometrial tumor cells; assay: Ishikawa cell assay (PNPP readout), agonist mode; assay type: cell-based; details: for Emax / Ishikawa Agonist % Eff: % efficacy versus the response to Tamoxifen; for Emax: read-out: Ishikawa Agonist % Eff
Source text: as §1

[3] = system: MCF-7 breast adenocarcinoma cells; assay: MCF-7 proliferation assay (14C-thymidine), antagonist mode; assay type: cell-based; details: with 10 pM E2
Procedure: MCF-7 breast adenocarcinoma cells (ATCC HTB 22) are maintained in MEM (minimal essential medium, phenol red-free, Gibco BRL) supplemented with 10% fetal bovine serum (FBS) (V/V), L-glutamine (2 mM), sodium pyruvate (1 mM), HEPES ((N-[2-hydroxyethyl]piperazine-N′-[2-ethanesulfonic acid]10 mM}, non-essential amino acids(0.1 mM)and Penicillin Streptomycin(1×). Seven days prior to assay, MCF-7 cells are switched to assay media which is the same as maintenance medium except supplemented with 10% dextran-coated charcoal-stripped fetal bovine serum (DCC-FBS) assay medium in place of 10% FBS. MCF-7 cells are removed from flasks using 10× Trypsin EDTA (phenol red free, Gibco BRL) and diluted to 1× in (Ca++/Mg++ free HBSS (phenol red-free). Cells are adjusted to 80,000 cells/ml in assay medium. Approximately 8,000 cells (100 μl) are added to each well in 96 well Cytostar T scintillation plates (Amersham) and incubated at 37° C. in a 5% CO2 humidified incubator for 24 hours to allow cell adherence and equilibration after transfer. Serial dilutions of drugs are prepared in assay medium at 4× the final desired concentration). A 50 μl aliquot of drug dilutions (at 4× the final assay concentration) is transferred to duplicate wells followed by 50 μl assay medium for the agonist mode or 50 μl of 40 pM of E2 for the antagonist mode to a final volume of 200 μl. For each of the agonist plates, a basal level (media) and a maximum stimulated level (with 1 μM E2) is determined. For each of the antagonist plates, a basal level (media) and a E2 (10 pM) alone control is determined. After an additional 48 hours at 37° C. in a 5% CO2 humidified incubator, 20 μl of assay medium containing 0.01 μCi of ^14C-thymidine (52 mCi/mmol, […], Amersham) is added to each well. The plates are incubated overnight in the same incubator and then counted on the Wallac Microbeta counter. […] For the agonist mode, an EC50 and percent of maximum E2 stimulation and concentration of maximum stimulation is calculated.

ERAlpha receptor = molecular target: T1, ERAlpha receptor (Homo sapiens, UniProt P03372); assay: ER alpha competition binding assay (3H-Estradiol); details: 3H-Estradiol competition; IC50 converted to Ki using Cheng-Prusoff; read-out: ER binding Ki (ERα)
T1 construct: purchased PanVera
T1 sequence (P03372 1-595): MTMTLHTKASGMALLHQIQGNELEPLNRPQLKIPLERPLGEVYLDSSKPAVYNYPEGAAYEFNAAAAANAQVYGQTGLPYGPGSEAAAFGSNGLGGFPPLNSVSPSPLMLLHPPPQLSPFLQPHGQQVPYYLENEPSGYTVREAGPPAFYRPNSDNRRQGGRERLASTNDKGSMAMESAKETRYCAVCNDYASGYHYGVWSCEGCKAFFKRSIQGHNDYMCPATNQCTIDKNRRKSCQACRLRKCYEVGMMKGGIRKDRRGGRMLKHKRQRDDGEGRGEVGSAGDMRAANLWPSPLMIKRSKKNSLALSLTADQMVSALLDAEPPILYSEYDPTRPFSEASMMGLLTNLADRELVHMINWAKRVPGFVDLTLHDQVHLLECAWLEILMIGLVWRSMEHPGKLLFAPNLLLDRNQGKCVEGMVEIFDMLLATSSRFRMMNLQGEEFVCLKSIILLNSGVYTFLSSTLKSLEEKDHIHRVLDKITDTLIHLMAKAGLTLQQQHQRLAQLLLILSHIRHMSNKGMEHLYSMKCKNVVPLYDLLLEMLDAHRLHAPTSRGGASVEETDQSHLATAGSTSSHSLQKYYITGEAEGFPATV
Procedure: (§2) Competition binding assay is run in a buffer containing 50 mM Hepes, pH 7.5, 1.5 mM EDTA, 150 mM NaCl, 10% glycerol, 1 mg/ml ovalbumin and 5 mM DTT, using 0.025 μCi per well ^3H-Estradiol(NEN #NET517 at 118 Ci/mmol, 1 mCi/ml), 10 ng/well ERAlpha or ERbeta receptor (PanVera). Competing compounds are added at 10 different concentrations. Non-specific binding is determined in the presence of 1 μM of 17-B Estradiol. The binding reaction (140 μl) is incubated for 4 hours at room temperature, then 70 μl of cold DCC buffer is added to each reaction (DCC buffer contains per 50 ml of assay buffer, 0.75 g of charcoal (Sigma) and 0.25 g of dextran (Pharmacia)). Plates are mixed 8 minutes on an orbital shaker at 4° C. Plates are then centrifuged at 3,000 rpm at 4° C. for 10 minutes. An aliquot of 120 μl of the mix is transferred to another 96-well, white flat bottom plate (Costar) and 175 μl of Wallac Optiphase “Hisafe 3” scintillation fluid is added to each well. Plates are sealed and shaken vigorously on an orbital shaker. After an incubation of 2.5 hrs, read plates in a Wallac Microbeta counter. […] The Kd for ^3H-Estradiol is determined by saturation binding to ER alpha and ER beta receptors. The IC50 values for compounds are converted to Ki using Cheng-Prusoff equation and the Kd determined by saturation binding assay.

ERbeta receptor = molecular target: T2, ERbeta receptor (Homo sapiens, UniProt Q92731); assay: ER beta competition binding assay (3H-Estradiol); details: 3H-Estradiol competition; IC50 converted to Ki using Cheng-Prusoff; read-out: ER binding Ki (ERβ)
T2 construct: purchased PanVera
T2 sequence (Q92731 whole entry): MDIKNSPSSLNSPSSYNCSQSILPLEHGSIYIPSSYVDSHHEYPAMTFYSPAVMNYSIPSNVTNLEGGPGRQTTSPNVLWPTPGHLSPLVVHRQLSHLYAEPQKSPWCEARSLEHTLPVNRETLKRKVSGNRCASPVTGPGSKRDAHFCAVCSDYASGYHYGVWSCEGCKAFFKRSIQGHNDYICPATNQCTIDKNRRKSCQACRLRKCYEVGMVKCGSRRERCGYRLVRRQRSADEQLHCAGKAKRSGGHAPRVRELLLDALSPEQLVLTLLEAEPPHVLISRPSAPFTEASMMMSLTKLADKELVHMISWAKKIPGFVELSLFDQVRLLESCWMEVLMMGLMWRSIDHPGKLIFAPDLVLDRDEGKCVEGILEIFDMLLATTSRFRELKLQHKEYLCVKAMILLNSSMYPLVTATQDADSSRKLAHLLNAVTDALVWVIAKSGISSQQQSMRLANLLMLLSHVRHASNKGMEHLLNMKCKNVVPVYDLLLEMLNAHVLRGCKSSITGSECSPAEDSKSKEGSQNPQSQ
Procedure: as §2

[4] = Homo sapiens, MCF7, antagonist mode

SMILES	IC50 [1] [nM]	EC50 ([2]; Homo sapiens, Ishikawa) [nM]	Emax ([2]; Homo sapiens, Ishikawa) [%]	IC50 [3, 4] [nM]	Ki (ERAlpha receptor) [nM]	Ki (ERbeta receptor) [nM]	EC50 [2] [nM]	IC50 ([3]; antagonist mode) [nM]	Ishikawa Agonist % Eff [2] [%]
Oc1ccc2c3c(ccc2c1)Cc1ccc(F)cc1C3c1ccc(OCCN2CCCCC2)cc1 (racemic) [Example 5, 10-Fluoro-12-[4-(2-piperidin-1-yl-ethoxy)-phenyl]-7,12-dihydro-benzo[a]anthracen-3-ol]	610	11	79	91	3	31	–	–	–
Oc1ccc2c3c(ccc2c1)Cc1ccc(F)cc1C3c1ccc(OCCN2CCCCC2)cc1 (racemic) [Example 6, 10-fluoro-12-[4-(2-piperidin-1-yl-ethoxy)-phenyl]-7,12-dihydro-benzo[a]anthracen-3-ol]	–	–	–	–	–	–	116	740	–
Oc1ccc2c3c(ccc2c1)Cc1ccc(F)cc1C3c1ccc(OCCN2CCCCC2)cc1 (racemic) [Example 7, 10-fluoro-12-[4-(2-piperidin-1-yl-ethoxy)-phenyl]-7,12-dihydro-benzo[a]anthracen-3-ol]	–	–	–	–	1	–	3	9	72
Oc1ccc2c(c1)Cc1ccc3cc(O)ccc3c1C2c1ccc(OCCN2CCCCC2)cc1 (racemic) [Example 9, 12-[4-(2-Piperidin-1-yl-ethoxy)-phenyl]-7,12-dihydro-benzo[a]anthracene-3,9-diol]	–	–	–	–	–	4	1	2	27
Oc1ccc2c(c1)Cc1ccc3cc(O)ccc3c1C2c1ccc(OCCN2CCCCC2)cc1 (racemic) [Example 10, 12-[4-(2-piperidin-1-yl-ethoxy)-phenyl]-7,12-dihydro-benzo[a]anthracene-3,9-diol]	–	–	–	–	–	5	3	–	56
Oc1ccc2c(c1)Cc1ccc3cc(O)ccc3c1C2c1ccc(OCCN2CCCCC2)cc1 (racemic) [Example 11, 12-[4-(2-piperidin-1-yl-ethoxy)-phenyl]-7,12-dihydro-benzo[a]anthracene-3,9-diol]	–	–	–	–	–	4	1	2	19
Oc1ccc2c3c(ccc2c1)Cc1ccc(F)cc1C3c1ccc(OCCN2CCCCC2)cc1 (single isomer, unassigned) [Example 6, 10-fluoro-12-[4-(2-piperidin-1-yl-ethoxy)-phenyl]-7,12-dihydro-benzo[a]anthracen-3-ol]	–	–	69	–	70	149	–	–	–
Oc1ccc2c3c(ccc2c1)Cc1ccc(F)cc1C3c1ccc(OCCN2CCCCC2)cc1 (single isomer, unassigned) [Example 7, 10-fluoro-12-[4-(2-piperidin-1-yl-ethoxy)-phenyl]-7,12-dihydro-benzo[a]anthracen-3-ol]	440	–	–	–	–	9	–	–	–
Oc1ccc2c3c(sc2c1)Cc1ccccc1C3c1ccc(OCCN2CCCCC2)cc1 (stereo not shown) [Example 1, 11-[4-(2-Piperidin-1-yl-ethoxy)-phenyl]-6,11-dihydro-benzo[b]naphtho[2,3-d]thiophen-3-ol trifluoroacetate]	712	3	77	17	2	5	–	–	–
Oc1ccc2c(c1)Cc1sc3cc(O)ccc3c1C2c1ccc(OCCN2CCCCC2)cc1 (stereo not shown) [Example 2, 11-[4-(2-Piperidin-1-yl-ethoxy)-phenyl]-6,11-dihydro-benzo[b]naphtho[2,3-d]thiophene-3,8-diol trifluoroacetate]	45	0.5	103	1	1	1	–	–	–
Oc1ccc2c3c(sc2c1)Cc1cccc(O)c1C3c1ccc(OCCN2CCCCC2)cc1 (stereo not shown) [Example 3, 11-[4-(2-Piperidin-1-yl-ethoxy)-phenyl]-6,11-dihydro-benzo[b]naphtho[2,3-d]thiophene-3,10-diol trifluoroacetate]	682	3	135	42	3	14	–	–	–
Oc1ccc2c(c1)C(c1ccc(OCCN3CCCCC3)cc1)c1c(sc3cc(O)ccc13)C2 (stereo not shown) [Example 4, 11-[4-(2-Piperidin-1-yl-ethoxy)-phenyl]-6,11-dihydro-benzo[b]naphtho[2,3-d]thiophene-3,9-diol]	53	1	56	1	1	1	–	–	–

From patent US7119206B2, “Derivative of dihydro-dibenzo (a) anthracenes and their use as selective estrogen receptor modulators” (Eli Lilly and Company, priority 2002, dated 2006)
